*: point of attachment. Lauroyl = CCCCCCCCCCCC(=O)*
What was measured:
[1] = Hydrophobicity: retention time during reverse phase HPLC; type: physicochemical; details: Acquity CSH C18; pH 7.2 buffer/CH3CN gradient; 40° C.
From the text: The retention time (RT) during reverse phase HPLC was taken as a measure of hydrophobicity of an N-terminally modified peptide or oligopeptide of the invention, where the connection is: The longer the RT, the more hydrophobic N-terminally modified peptide or oligopeptide. The following running conditions were applied during HPLC analysis:
Buffer B: 70% (v/v) aq. CH3CN

[2] = test system: Chymotrypsin; test: Inhibition of enzymatic degradation of a model GLP-1 (FRET substrate) by chymotrypsin; type: biochemical
From the text: (§1) The use of Förster resonance energy transfer (FRET), also known as fluorescence resonance energy transfer, substrates to monitor activity of proteolytic enzymes is known in the field (for example Anjuere, F. et al. (1993). Biochem J 291 (Pt 3), 869-73).
(§2) Model GLP-1 analogue was designed as FRET substrate by incorporation of 7-Methoxycoumarin-4-acetic acid (MCA) group as the donor chromophore and dinitrophenol group (DNP) as the acceptor chromophore.
(§3) An assay following the increase in fluorescence as a function of time was established in 96 well format using Varioskan Flash Multimode Meter (Thermo Scientific). Each well contained 70 μl of Dulbecco's phosphate buffer saline (Invitrogen catalogue #14190-094), 10 μl of 100 μM GLP-1 FRET substrate, 10 μl of N-terminally acylated peptide or oligopeptide of the invention in varying concentration and 10 μl of a stock solution of an enzyme (chymotrypsin, trypsin, elastase, etc.). The incubations were performed at 37° C. Fluorescence (320 nm excitation wavelength and 405 nm emission wavelength) was measured immediately after addition of the enzyme to the 96 well plate and also every minute for at least the next 30 minutes. The concentration of the enzyme was optimized to allow determination of slopes for the time course of initial fluorescence increase with and without the N-terminally acylated peptides or oligopeptides of the invention. The slopes were determined by linear regression of the linear part of the fluorescence trace (for example, the first 10 min of the reaction). Each assay was performed in duplicate and average of the two traces was included in the calculations. The relative effect of N-terminally acylated peptide or oligopeptides of the invention on enzymatic degradation of GLP-1 FRET substrate was obtained by comparison of the slopes achieved by the same concentration of the N-terminally acylated peptide or oligopeptides. […] This was done by plotting the slopes achieved with different concentrations of the N-terminally acylated peptide or oligopeptides of the invention as a function of their concentrations and fitting the experimental results using, for example, sigmoidal logistic regression (2 parameters, Sigma Plot v 11). Inhibition constants for the interaction between the N-terminally acylated peptide or oligopeptides of the invention and proteolytic enzymes were also obtained by performing the assay described above with varying concentrations of the inhibitor and substrate and analyzing the results, for example, by double reciprocal transformation as known to the person skilled in the art and described for example in Hubalek, F. et al., J. Med. Chem. 47, 1760-1766 (2004).
(§4) The EC50 was determined for the following compounds. EC50±standard error is reported if the results of at least 3 independent measurements were available.

[3] = test system: Trypsin; test: Inhibition of enzymatic degradation of a model GLP-1 (FRET substrate) by trypsin; type: biochemical
From the text: as §1, §2, §3, §4

[4] = compound 0.1 mM, buffer containing 8% DMSO

Row | Substance | RT (retention time during reverse phase HPLC as a measure of hydrophobicity) [1] | Slope of the initial increase in fluorescence obtained during incubation with 0.001 mg/ml Chymotrypsin [2, 4] | Slope of the initial increase in fluorescence obtained during incubation with 0.001 mg/ml Trypsin [3, 4] | Slope of the initial increase in fluorescence obtained during incubation with 0.001 mg/ml Chymotrypsin ([2]; compound 1 mM) | Slope of the initial increase in fluorescence obtained during incubation with 0.001 mg/ml Trypsin ([3]; compound 1 mM) | EC50 ([2]; read-out: EC50 Chymotrypsin (0.001 mg/ml), 0.001 mg/ml chymotrypsin, 37° C., ± standard error if at least 3 measurements) | EC50 ([3]; read-out: EC50 Trypsin (0.001 mg/ml), 0.001 mg/ml trypsin, 37° C.)
1 | N-dodecanoyl-Val-Ala-Ala-Pro-Tyr-OH [Example 54] | 7.08 min | 0.95 | 1.95 | – | – | – | –
2 | N-dodecanoyl-Ala-Ala-Gln-Tyr-OH (Lauroyl-AAQY-OH; SMILES CCCCCCCCCCCC(=O)N[C@@H](C)C(=O)N[C@@H](C)C(=O)N[C@@H](CCC(N)=O)C(=O)N[C@@H](Cc1ccc(O)cc1)C(=O)O) [Example 61] | 8.28 min | 2.20 | 2.07 | – | – | – | –
3 | Ala-Ala-Pro-Phe-OH [Example 14] | 3.08 min | – | – | 3.53 | 4.46 | – | –
4 | N-dodecanoyl-Ala-Ala-Pro-DPhe-OH [Example 4] | 6.89 min | – | – | 0.08 | 0.83 | – | –
5 | N-dodecanoyl-γGlu-γGlu-Ala-Ala-Pro-Tyr-OH [Example 99] | 3.41 min | 0.35 | 1.52 | – | – | – | –
6 | N-dodecanoyl-Asp-Ala-Pro-Tyr-OH (Lauroyl-DAPY-OH; SMILES CCCCCCCCCCCC(=O)N[C@@H](CC(=O)O)C(=O)N[C@@H](C)C(=O)N1CCC[C@H]1C(=O)N[C@@H](Cc1ccc(O)cc1)C(=O)O) [Example 96] | 3.86 min | 1.63 | 1.78 | – | – | – | –
7 | N-dodecanoyl-Ala-Ala-Ala-Pro-Tyr-OH [Example 56] | 5.74 min | 0.59 | 1.92 | – | – | – | –
8 | N-dodecanoyl-His-Ala-Ala-Pro-Tyr-OH [Example 38] | 4.94 min | 0.02 | 1.66 | – | – | – | –
9 | N-dodecanoyl-Ala-Ala-Met-Tyr-OH (Lauroyl-AAMY-OH; SMILES CCCCCCCCCCCC(=O)N[C@@H](C)C(=O)N[C@@H](C)C(=O)N[C@@H](CCSC)C(=O)N[C@@H](Cc1ccc(O)cc1)C(=O)O) [Example 68] | 6.68 min | 0.60 | 1.73 | – | – | – | –
10 | N-tetradecanoyl-γGlu-OEG-Ala-Ala-Pro-Phe-OH [Example 126] | 5.02 min | – | – | 0.05 | 0.30 | 102 µM | > 500 µM
11 | N-dodecanoyl-Met-Pro-Tyr-OH [Example 123] | 7.23 min | 0.82 | 2.11 | – | – | – | –
12 | N-dodecanoyl-Ala-Pro-Pro-Tyr-OH (Lauroyl-APPY-OH; SMILES CCCCCCCCCCCC(=O)N[C@@H](C)C(=O)N1CCC[C@H]1C(=O)N1CCC[C@H]1C(=O)N[C@@H](Cc1ccc(O)cc1)C(=O)O) [Example 85] | 6.1 min | 1.81 | 1.92 | – | – | – | –
13 | N-dodecanoyl-Ala-Ala-Lys-Tyr-OH (Lauroyl-AAKY-OH; SMILES CCCCCCCCCCCC(=O)N[C@@H](C)C(=O)N[C@@H](C)C(=O)N[C@@H](CCCCN)C(=O)N[C@@H](Cc1ccc(O)cc1)C(=O)O) [Example 67] | 4.7 min | 0.94 | 1.89 | – | – | – | –
14 | N-dodecanoyl-Pro-Ala-Pro-Tyr-OH (Lauroyl-PAPY-OH; SMILES CCCCCCCCCCCC(=O)N1CCC[C@H]1C(=O)N[C@@H](C)C(=O)N1CCC[C@H]1C(=O)N[C@@H](Cc1ccc(O)cc1)C(=O)O) [Example 49] | 6.2 min | 0.57 | 1.96 | – | – | – | –
15 | N-dodecanoyl-Thr-Ala-Ala-Pro-Tyr-OH [Example 52] | 5.47 min | 0.01 | 1.68 | – | – | – | –
16 | N-dodecanoyl-Trp-Pro-Tyr-OH [Example 109] | 8.24 min | 0.05 | 0.73 | – | – | – | –
17 | N-dodecanoyl-Aib-Aib-Pro-Phe-OH [Example 7] | 8.06 min | – | – | 0.34 | 0.49 | – | –
18 | N-dodecanoyl-Asn-Pro-Tyr-OH [Example 114] | 5.07 min | 2.01 | 1.99 | – | – | – | –
19 | N-dodecanoyl-OEG-OEG-Phe-OEG-OH [Example 130] | 6.21 min | – | – | 0.54 | 0.67 | – | –
20 | N-dodecanoyl-Ala-Ala-Leu-Tyr-OH (Lauroyl-AALY-OH; SMILES CCCCCCCCCCCC(=O)N[C@@H](C)C(=O)N[C@@H](C)C(=O)N[C@@H](CC(C)C)C(=O)N[C@@H](Cc1ccc(O)cc1)C(=O)O) [Example 66] | 7.18 min | 0.18 | 1.98 | – | – | – | –
21 | N-dodecanoyl-Ala-Ala-Arg-Tyr-OH (Lauroyl-AARY-OH; SMILES CCCCCCCCCCCC(=O)N[C@@H](C)C(=O)N[C@@H](C)C(=O)N[C@@H](CCCNC(=N)N)C(=O)N[C@@H](Cc1ccc(O)cc1)C(=O)O) [Example 58] | 4.87 min | 0.28 | 1.98 | – | – | – | –
